The values that follow come from US20200032214A1, “METHOD FOR PRODUCING MYOCARDIAL STEM CELL USED FOR TREATMENT AND/OR PREVENTION OF CARDIAC ARREST” (LUCA Science Inc., priority 2016, published 2020).

The subject of this assay is mitochondrial membrane potential. In words: Mitochondrial membrane potential with fluorescent dye JC-1. It counts as cell-based, mouse. Conditions: microscopy; FIG. 15. The source says: For MA-Cell, and CPC prepared in Example 1, the mitochondrial membrane potential was examined using fluorescent dye JC-1 (Invitrogen) in accordance with manufacturer's protocol. JC-1 emits red fluorescence with a wavelength of 590 nm when accumulating on polarized mitochondria, and JC-1 is diffused into the cytoplasm to emit green fluorescence with a wavelength of 529 nm when mitochondria are depolarized (the membrane potential is eliminated).
Further, for 19 cells for each of MA-Cell and CPC, a ratio of the fluorescence intensity of polarized mitochondria (red, Dimer) to the fluorescence intensity of depolarized mitochondria (green, Monomer) (Dimer/Monomer ratio) was calculated (FIG. 16).

For `N#CC(C#N)=NNc1ccc(OC(F)(F)F)cc1` [FCCP], the “JC-1 red fluorescence (polarized mitochondria)” value is “red fluorescence was substantially eliminated”.
